Measured values published in US20130071328A1, “Propynoic Acid Carbamoyl Methyl-Amides and Pharmaceutical Compositions and Methods Based Thereon” (UNIVERSITY OF SOUTHERN CALIFORNIA, priority 2011, published 2013).
Entries after “also recorded” stand apart in the source; their conditions may differ.

Assays:
[1] = tested on: doxorubicin-resistant NCI/ADR-RES ovarian cancer cell line; test: Cytotoxicity assay, NCI/ADR-RES; format: cell-based; conditions: Homo sapiens, MTT, 72 h exposure (Table 2)
Protocol: (§1) Cytotoxicity was assessed by MTT assay as described previously. 43 In brief, cells were seeded in 96-well microtiter plates and allowed to attach overnight. Cells were subsequently treated with continuous exposure to corresponding drugs for 72 h. At the end of treatments, an MTT solution (at a final concentration of 0.5 mg/mL) was added to each well, and cells were incubated for 4 h at 37° C. After removal of the supernatant, DMSO was added, and the absorbance was read at 570 nm. All assays were done in triplicate. The IC50 was then determined for each drug from a plot of log(drug concentration) versus percentage of cells killed.

[2] = tested on: UMUC3 bladder cancer cell line; test: MTT cytotoxicity assay, UMUC3; format: cell-based; conditions: Homo sapiens, 72 h exposure
Description: (§2) The human breast cancer cell line MDA-MB-435 and the colon cancer cell line HT29 were purchased from the American Type Cell Culture (Manassas, Va.). Colon cancer cell lines HCT116 p53^+/+ and HCT116 p53^−/− were kindly provided by Dr. Bert Vogelstein (Johns Hopkins Medical Institutions, Baltimore, Md.). The human ovarian carcinoma cell line (HEY), naturally resistant to cisplatin (CDDP), was kindly provided by Dr. Louis Dubeau (USC Norris Cancer Center). The bladder cancer cell lines were kindly provided by Dr. Richard Cote (USC Keck School of Medicine). Cells were maintained as monolayer cultures in the appropriate media: RPMI-1640 (HT29, HCT116 p53^+/+, HCT116 p53^−/−, and HEY cell lines) or DMEM (MDA-MB-435 and UMUC3 cell lines) supplemented with 10% fetal bovine serum (FBS) (HyClone, Road Logan, Utah) at 37° C. in a humidified atmosphere of 5% CO2. To remove the adherent cells from the flask for subculture and counting, cells were washed with PBS without calcium or magnesium, incubated with a small volume of 1×trypsin-EDTA solution (Sigma-Aldrich, St. Louis, Mo.) for 5 min, resuspended with fresh culture medium, and centrifuged at 1200 rpm for 5 min. All experiments were performed using cells in exponential growth phase. Cells were routinely checked for Mycoplasma contamination using PlasmaTest kit (InvivoGen, San Diego, Calif.).
as §1

[3] = tested on: MDA-MB-435 cells; test: Apoptosis assay, annexin V/propidium iodide flow cytometry; format: cell-based, human; conditions: for induction of apoptosis: 24 and 48 hours
Protocol: To quantify drug-induced apoptosis, annexin V/propidium iodide staining was performed and analyzed by flow cytometry. MDA-MB-435 cells were treated with 10 μM compound 1, 2, or 4 for 24 and 48 h. After treatment, both floating and adherent cells were combined and subjected to annexin V/propidium iodide staining using an annexin V-FITC apoptosis detection kit (Oncogene Research Products, San Diego, Calif.) according to manufacturer's recommendations. Untreated control cells (48 h) were maintained in parallel to drugtreated groups. Double staining was used to distinguish between viable, early apoptotic, and necrotic or late apoptotic cells. The resulting fluorescence (FITC-A channel for green fluorescence and PE-A channel for red fluorescence) was measured by flow cytometry using a BD LSRII flow cytometer (BD Biosciences, San Jose, Calif.).

[4] = tested on: MDA-MB-435 xenograft; test: MDA-MB-435 mouse xenograft model; format: in vivo
Protocol: To investigate the in vivo efficacy of these compounds, we selected compound 2 and evaluated its anticancer activity in a nude mouse xenograft model using MDA-MB-435 cells. Animals were treated with daily intraperitoneal (i.p.) injections of DMSO in sesame oil (vehicle control) or compound 2 at 10 mg/kg for 9 days, followed by 20 mg/kg for 5 days and concluding with 40 mg/kg for 12 days. After 26 days of dosing, the drug treatment was discontinued. Mice were monitored daily for an additional 17 days, and tumors were measured twice per week. FIG. 4A summarizes the tumor volume (mean±SEM) of the treatment groups throughout the observation time.
Sixteen virgin female athymic nude (nu/nu) mice (Simonsen Laboratory Inc., Gilroy, Calif.) were used for in vivo efficacy testing. […]
Human breast cancer MDA-MB-435 cells in logarithmic phase growth from in vitro cell culture were inoculated subcutaneously on the rear flank of the mice (1.5×10^6 cells/mouse) under aseptic conditions. Tumor growth was assessed twice weekly by measuring tumor diameters with a Vernier caliper (length×width). Tumor weight was calculated according to the formula: TW (mg)=tumor volume (mm^3)=d^2×D/2, where d and D are the shortest and longest diameters, respectively. […]
Eight mice were assigned to each group and the results were expressed as the mean±SEM. […]

[5] = tested on: MDA-MB-435 cells; test: Mitochondrial superoxide production (MitoSOX Red); format: cell-based, human; conditions: IC50 or 3×IC50, 24 hours
Protocol: After drug treatments, a solution of 5 μM MitoSOX Red mitochondrial superoxide indicator (Invitrogen, Carlsbad, Calif.) was added, and cells were incubated for 10 min at 37° C. Cells were then washed three times with Hank's balanced salt solution (HBSS) to remove excess MitoSOX. After washing, cells were either observed under the fluorescence microscope or collected by trypsinization, washed twice with HBSS, and measured for superoxide production using a BD LSRII flow cytometer (BD Biosciences, San Jose, Calif., USA). Data were analyzed with the BD FACSDiva software package (BD Biosciences, San Jose, Calif., USA).

[6] = tested on: 5637 bladder cancer cell line; test: MTT cytotoxicity assay, 5637; format: cell-based, human; conditions: for IC50: Homo sapiens, 72 h exposure
Description: as §2, §1

[7] = tested on: HEY ovarian cancer cell line; test: Cytotoxicity assay, HEY; format: cell-based; conditions: Homo sapiens; MTT, 72 h exposure (Table 2)
Description: as §2, §1

[8] = tested on: HCT116 p53^−/− colon cancer cell line; test: MTT cytotoxicity assay, HCT116 p53-/-; format: cell-based; conditions: Homo sapiens, HCT-116, 72 h exposure
Description: as §2, §1

[9] = tested on: HT29 colon cancer cell line; test: MTT cytotoxicity assay, HT29; format: cell-based; conditions: Homo sapiens, HT-29, 72 h exposure
Description: as §2, §1

[10] = tested on: HCT116 p53^+/+ colon cancer cell line; test: MTT cytotoxicity assay, HCT116 p53+/+; format: cell-based; conditions: Homo sapiens, HCT-116, 72 h exposure
Description: as §2, §1

[11] = tested on: MDA-MB-435 cells; test: Cell cycle analysis by propidium iodide flow cytometry; format: cell-based, human
Protocol: Cell cycle perturbations were analyzed by propidium iodide DNA staining. Exponentially growing MDA-MB-435 cells were treated with 5 μM compound 4 for 6, 12, and 24 h. At the end of treatment, cells were collected and washed with 1×PBS after a gentle centrifugation at 1500 rpm for 5 min. Cells were then thoroughly resuspended in 0.5 mL of PBS and fixed in 70% ethanol overnight at 4° C. Ethanol-fixed cells were centrifuged at 3000 rpm for 5 min and washed twice in PBS to remove residual ethanol. For cell cycle analysis, the pellets were resuspended in 1 mL of PBS containing 0.02 mg/mL of propidium iodide and 0.5 mg/mL of DNase-free RNase A and incubated at 37° C. for 30 min. Cell cycle profiles were obtained using a BD LSRII flow cytometer (BD Biosciences, San Jose, Calif.). Propidium iodide was excited using a 488 nm blue argon laser. Resulting fluorescence was measured using a PMT detector equipped with 550 nm long pass dichroic mirror and 575/26 bandpass filter. Data were analyzed with the ModFit LT software package (Verify Software House, Inc., Topsham, Me.).

[12] = tested on: panel of cancer cells; test: MTT cytotoxicity of compound 4 across tested cell lines (FIG. 2B); format: cell-based; conditions: Homo sapiens, MTT assays
Protocol: as §1

[13] = Pharmacokinetics study after i.p. administration; format: in vivo, mice; conditions: mouse, ip
Protocol: To assess the efficacy, tolerability, and pharmacokinetics of these novel compounds following i.p. administration, the pharmacokinetic profile of compounds 4 and 9 was evaluated (Table 3). Mice were treated with compounds 4 and 9 via i.p. injection and serial blood sampling was determined at indicated times after administration. The plasma concentration was determined using a validated liquid chromatography mass spectrometry (LC-MS) method where the lowest level of quantification was 1 ng/mL. One hour following i.p. administration of compounds 4 and 9, their concentrations in the blood were 344 and 6.2 ng/mL, respectively. […] The half-lives of compounds 4 and 9 via i.p. administration were determined to be approximately 3.5 and 9.3 hours, respectively, when a non-compartmental pharmacokinetics analysis was used. The favorable pharmacokinetics profile of compounds 4 and 9 is consistent with the ADMET predictions described previously.
Preliminary pharmacokinetics of compounds 4 and 9 were performed using 18 mice, each time point consisting of two mice. Mice were stratified to various doses given as an i.p. injection of compounds 4 and 9 (24 mg/kg). At the specified time points following drug administration, blood was collected with heparinized syringes. The samples were allowed to settle in 500 μL eppendorf vials and then centrifuged at 1500 rpm for 10 min. The plasma was removed, transferred into new eppendorf tube, and frozen at −80° C. until analysis.

[14] = tested on: MDA-MB-435 breast cancer cell line; test: MTT cytotoxicity assay, MDA-MB-435; format: cell-based, human
Description: as §2, §1

C#CC(=O)N(c1cccc(C(F)(F)F)c1)C(C(=O)NC1CCCC1)c1cccc(OC)c1 (stereo not drawn) [Compound 2, N-[2-(Cyclopentylamino)-1-(3-methoxyphenyl)-2-oxoethyl]-N-[3-(trifluoromethyl)phenyl]Propynamide]
IC50 [1]: 0.2 ± 0.1 µM
IC50 [2]: > 20 µM
induction of early apoptosis ([3]; 10 μM, 24 hours): failed to induce early apoptosis
increase in early apoptotic cells ([3]; 10 μM, 48 h): 8%
percentage of late apoptotic cells ([3]; 10 μM, 48 hours): 37%
induction of apoptosis [3]: induce apoptosis
tumor burden (tumor volume) ([4]; i.p. daily 10 mg/kg 9 days, 20 mg/kg 5 days, 40 mg/kg 12 days): significantly reduced tumor burden
average body weight after treatment ([4]; mean±SD, after treatment, control 28±2 g): 29 ± 2 g
mitochondrial superoxide production, flow cytometry [5]: induce significant amounts of superoxide
IC50 [6]: 0.6 ± 0.4 µM
IC50 [7]: 5.2 ± 3.4 µM
IC50 [8]: 8.8 ± 0.4 µM
IC50 [9]: 7.2 ± 0.2 µM
IC50 [10]: > 10 µM

C#CC(=O)N(c1ccc(-n2cnnn2)c(C)c1)C(C(=O)NC1CCCC1)c1ccccc1F (stereo not drawn) [Compound 4, N-[2-(Cyclopentylamino)-1-(2-fluorophenyl)-2-oxoethyl]-N-[3-methyl-4-(1H-tetraazol-1-yl)phenyl]Propynamide]
cell cycle perturbation ([11]; 5 μM, 6, 12 and 24 hours): induced both S- and G2/M-arrest; also recorded: block cell cycle progression at both S and G2/M phases
increase in number of cells retained in G2/M phase vs untreated control ([11]; 5 μM, 24 hours): 7%
increase in number of cells retained in S phase vs untreated control ([11]; 5 μM, 24 hours): 10%
IC50 [12]: 1 to 2.5 µM
IC50 [1]: 1 ± 0.3 µM
IC50 [2]: 6.3 ± 1 µM
AUC ([13]; in vivo, 24 mg/kg): 520 ng·h/mL
Cmax ([13]; in vivo, 24 mg/kg): 344 ng/mL
Kel ([13]; in vivo, 24 mg/kg): 0.206 h⁻¹
Tmax ([13]; in vivo, 24 mg/kg): 1.0 h
half-life ([13]; in vivo, 24 mg/kg): ~3.5 h
t1/2 ([13]; in vivo, 24 mg/kg): 3.5 h
concentration at 1 h ([13]; plasma, mice, 24 mg/kg i.p., 1 hour, read-out: concentration in the blood one hour following i.p. administration): 344 ng/mL
percentage of late apoptotic cells ([3]; 10 μM, 24 hours): 27%
percentage of early apoptotic cells ([3]; 10 μM, 48 hours): 24%
percentage of late apoptotic cells ([3]; 10 μM, 48 hours): 62%
induction of apoptosis [3]: induce apoptosis
cytotoxic potency in MDA-MB-435 cells [14]: one of the most active compounds
mitochondrial superoxide production, flow cytometry [5]: induce significant amounts of superoxide
cytotoxic potency in 5637 cells [6]: remarkable potency
IC50 [6]: 0.7 ± 0.5 µM
IC50 [7]: 1.5 ± 0.8 µM
IC50 [8]: 5.5 ± 0.7 µM
IC50 [9]: 1.8 ± 1.7 µM
IC50 [10]: 6.3 ± 1.8 µM
